Source: paper PMC10046369, “Low-Affinity/High-Selectivity Dopamine Transport Inhibition Sufficient to Rescue Cognitive Functions in the Aging Rat” (Biomolecules, 2023)

Columns and labels:
Assay in all cases: cell-based
Design in all cases: Eurofins Cerep functional GPCR antagonist assay, reference antagonists
5HT1B (h) [1] = target: T1, 5HT1B (h) (Homo sapiens, UniProt P28222)
T1 construct: gene HTR1B

5HT1B (h) [2] = target: T1, 5HT1B (h); remark: listed apart in the source
P2Y1 (h) [3] = target: T2, P2Y1 (h) (Homo sapiens, UniProt P47900)
T2 construct: gene P2RY1
T2 sequence (P47900 whole entry): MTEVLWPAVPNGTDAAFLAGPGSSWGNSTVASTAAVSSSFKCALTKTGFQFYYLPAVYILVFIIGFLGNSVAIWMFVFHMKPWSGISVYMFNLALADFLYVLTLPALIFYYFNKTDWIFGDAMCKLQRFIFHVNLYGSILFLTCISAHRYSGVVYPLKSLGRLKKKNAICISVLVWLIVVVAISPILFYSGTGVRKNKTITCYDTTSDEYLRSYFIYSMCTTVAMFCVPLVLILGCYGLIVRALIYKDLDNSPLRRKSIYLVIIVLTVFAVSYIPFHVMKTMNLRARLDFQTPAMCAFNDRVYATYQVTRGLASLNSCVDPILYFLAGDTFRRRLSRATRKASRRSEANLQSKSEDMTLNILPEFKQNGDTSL

P2Y1 (h) [4] = target: T2, P2Y1 (h); remark: listed apart in the source
5-HT2B (h) [5] = target: T3, 5-HT2B (h) (Homo sapiens, UniProt P41595)
T3 construct: gene HTR2B
T3 sequence (P41595 whole entry): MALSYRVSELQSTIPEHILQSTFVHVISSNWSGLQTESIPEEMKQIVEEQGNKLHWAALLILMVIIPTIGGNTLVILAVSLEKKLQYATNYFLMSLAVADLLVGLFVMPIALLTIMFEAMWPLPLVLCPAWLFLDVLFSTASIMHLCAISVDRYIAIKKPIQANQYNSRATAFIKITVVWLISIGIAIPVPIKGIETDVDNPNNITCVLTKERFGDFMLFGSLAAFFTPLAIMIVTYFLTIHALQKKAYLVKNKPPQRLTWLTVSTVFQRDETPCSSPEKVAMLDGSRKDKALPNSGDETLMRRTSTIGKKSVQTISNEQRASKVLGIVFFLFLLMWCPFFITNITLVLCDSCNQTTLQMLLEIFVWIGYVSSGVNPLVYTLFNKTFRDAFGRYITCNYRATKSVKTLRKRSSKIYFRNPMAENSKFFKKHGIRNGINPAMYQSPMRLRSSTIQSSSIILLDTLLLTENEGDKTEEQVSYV

5-HT2B (h) [6] = target: T3, 5-HT2B (h); remark: listed apart in the source

T1 sequence (P28222 whole entry): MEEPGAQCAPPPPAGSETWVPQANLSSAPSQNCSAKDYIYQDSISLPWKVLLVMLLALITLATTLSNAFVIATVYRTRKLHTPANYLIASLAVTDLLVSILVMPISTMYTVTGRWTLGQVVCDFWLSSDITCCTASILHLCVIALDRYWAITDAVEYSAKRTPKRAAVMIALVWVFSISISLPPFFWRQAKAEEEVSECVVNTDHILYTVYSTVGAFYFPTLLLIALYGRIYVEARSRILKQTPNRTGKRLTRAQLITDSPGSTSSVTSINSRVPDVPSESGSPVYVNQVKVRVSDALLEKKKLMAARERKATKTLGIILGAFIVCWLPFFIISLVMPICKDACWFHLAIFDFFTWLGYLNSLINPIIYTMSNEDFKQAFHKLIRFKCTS

Work on `CN(C)CCCc1cc(C(=O)Nc2ccc(-c3ccncc3)cc2)ccc1O` [GR55562] yielded an IC50 (5HT1B (h) [1]) of 69 nM and a Kb (5HT1B (h) [2]) of 11 nM.
With `CNc1nc(I)nc2c1ncn2[C@H]1C[C@H](OP(=O)(O)O)[C@]2(COP(=O)(O)O)C[C@H]12` [MRS 2500] the Kb (P2Y1 (h) [3]) was 0.43 nM and the IC50 (P2Y1 (h) [4]) was 1.9 nM.
`Cn1ccc2cc3c(cc21)CCN3C(=O)Nc1cccnc1` [SB 206553] gave an IC50 (5-HT2B (h) [5]) of 19 nM and a Kb (5-HT2B (h) [6]) of 2.9 nM.
